# From patent US20010044463A1, “Methods for controlling gram negative bacteria in mammals” (priority 1997, published 2001)
# Key:
# H. pylori ATCC 43504 = assay: Minimum Inhibitory Concentration (MIC) blood agar plate growth inhibition; format: cell-based, Helicobacter pylori
# Method: Subsequent dilutions were made in ethanol immediately prior to use. […] Subsequent dilutions were made in BHI medium (Brain heart infusion broth, Difco #0037-07-0) immediately prior to use.
# (§1) Blood agar base (BAB) was prepared containing 1.5% agar and autoclaved. 20 ml samples of autoclaved BAB were poured into 50 mL tubes and placed in a 56° C. water bath.
# The mixed media preparation was poured into a petri dished and allowed to solidify.
# (§2) Prior to inoculation of petri plates, bacteria or cultures were examined for morphology under a phase microscope to confirm motility and physical characteristics, e.g., spiral shaped. The organisms were washed off the plate into PBS (Phosphate buffered saline) (80.0 g NaCl, 2.0 g KCl, 2.4 g KH2PO4 11.5 g Na2HPO4 or 24.4 g Na2HPO4/2H2O per 1 liter deionized water, pH 7.2, sterilized by autoclaving) and diluted into BHI at a concentration of 10^8/ml (O.D. of 0.3 units diluted 1:30). Ten microliters of solution containing 10^6 organisms were spread onto a petri plate and grown under microaerophilic conditions for 3 days unless specified. Control organisms were grown under microaerophilic conditions.
# (§3) Inhibition of growth was determined by the amount of colonies present within the petri plate. The following factors were used for growth inhibition: ±=0-20 colonies, +=20-50 colonies, ++=50-200 colonies and +++=200+ colonies.
# [1] = test system: H. pylori (urease negative) (Wild strain of ATCC 43504); assay: as above; format: cell-based, Helicobacter pylori; settings: Table III
# Method: (§4) Monensin (Sigma Cat. No. M-5273) was dissolved in 100% absolute ethanol (AAPER Alcohol and Chemical Co.) at a concentration of 20 mg/ml. Subsequent dilutions were made in ethanol immediately prior to use. Nigericin (Sigma Cat. No. N-7143) was dissolved in DMSO at 2 mg/ml. Subsequent dilutions were made in BHI medium (Brain heart infusion broth, Difco #0037-07-0) immediately prior to use.
# as §1
# (§5) 100 μl of a drug (final concentration equivalent to 1:200 of original concentration) and 1.2 ml of sheep blood (Colorado Senun Company # CS-1112) (blood diluted in a 1:1 buffer providing a 3% concentration of blood per 20 ml medium sample) were added to 20 ml sample of media and mixed. The mixed media preparation was poured into a petri dished and allowed to solidify.
# as §2, §3
# Staph ATCC 14775 = assay: Blood agar plate growth inhibition, control organism; format: cell-based
# Method: as §4, §1, §5
# as §2, with “Control organisms were grown under microaerophilic conditions.” left out
# as §3
# [2] = test system: H. pylori (urease positive) ATCC Number 51652; assay: Minimum Inhibitory Concentration (MIC) blood agar plate growth inhibition; format: cell-based, Helicobacter pylori; settings: Table XVII, Blood agar base + 3% sheep blood
# Method: as §4, §1, §5, §2, §3
# [3] = final drug concentration 0.1 ng/ml
# [4] = final drug concentration 10 ng/ml
# [5] = final drug concentration 100 ng/ml
# [6] = final drug concentration 1 μg/ml
# [7] = final drug concentration 10 μg/ml
compound,measurement,setting,value
"CO[C@@H]1C[C@@H](C[C@H]2CC[C@H](C)[C@H]([C@@H](C)C(=O)O)O2)O[C@]2(O[C@](C)([C@H]3CC[C@@](C)([C@@H]4O[C@@H]([C@H]5O[C@@](O)(CO)[C@H](C)C[C@@H]5C)C[C@@H]4C)O3)C[C@H]2C)[C@@H]1C [Nigericin, nigericin]",growth (amount of colonies present within the petri plate),"H. pylori ATCC 43504; Table I, final drug concentration 0.1 ng/ml",(+++) (+++=200+ colonies)
same,growth (amount of colonies present within the petri plate),"H. pylori ATCC 43504; Table I, final drug concentration 1 ng/ml",(+++) (+++=200+ colonies)
same,growth (amount of colonies present within the petri plate),"H. pylori ATCC 43504; Table I, final drug concentration 10 ng/ml",(+++) (+++=200+ colonies)
same,growth (amount of colonies present within the petri plate),"H. pylori ATCC 43504; Table I, final drug concentration 100 ng/ml",(++) (++=50-200 colonies)
same,growth (amount of colonies present within the petri plate),"H. pylori ATCC 43504; Table I, final drug concentration 1 μg/ml",No growth
same,growth (amount of colonies present within the petri plate),"H. pylori ATCC 43504; Table I, final drug concentration 10 μg/ml",No growth
same,growth (amount of colonies present within the petri plate),"H. pylori ATCC 43504; Table II, urease positive, final drug concentration 1 ng/ml",(+++) (+++=200+ colonies)
same,growth (amount of colonies present within the petri plate),"H. pylori ATCC 43504; Table II, urease positive, final drug concentration 10 ng/ml",(+++) (+++=200+ colonies)
same,growth (amount of colonies present within the petri plate),"H. pylori ATCC 43504; Table II, urease positive, final drug concentration 1 μg/ml",No growth
same,growth (amount of colonies present within the petri plate),"H. pylori ATCC 43504; Table II, urease positive, final drug concentration 10 μg/ml",No growth
same,growth (amount of colonies present within the petri plate),"H. pylori ATCC 43504; Table II, urease positive, final drug concentration 0.1 nglml",(+++) (+++=200+ colonies)
same,growth (amount of colonies present within the petri plate),"H. pylori ATCC 43504; Table IV, urease positive, final drug concentration 0.1 ng/ml",(+++) (+++=200+ colonies)
same,growth (amount of colonies present within the petri plate),"H. pylori ATCC 43504; Table IV, urease positive, final drug concentration 1 ng/ml",(+++) (+++=200+ colonies)
same,growth (amount of colonies present within the petri plate),"H. pylori ATCC 43504; Table IV, urease positive, final drug concentration 10 ng/ml",(+++) (+++=200+ colonies)
same,growth (amount of colonies present within the petri plate),"H. pylori ATCC 43504; Table IV, urease positive, final drug concentration 100 ng/ml",(+++) (+++=200+ colonies)
same,growth (amount of colonies present within the petri plate),"H. pylori ATCC 43504; Table IV, urease positive, final drug concentration 1 μg/ml",No growth
same,growth (amount of colonies present within the petri plate),"H. pylori ATCC 43504; Table IV, urease positive, final drug concentration 10 μg/ml",No growth
same,growth (amount of colonies present within the petri plate),"H. pylori ATCC 43504; Table V, in the presence of 10 mM urea, final drug concentration 0.1 ng/ml, Nigericin assay done in duplicate",(+++)^1 (+++=200+ colonies)
same,growth (amount of colonies present within the petri plate),"H. pylori ATCC 43504; Table V, in the presence of 10 mM urea, final drug concentration 1 ng/ml, Nigericin assay done in duplicate",(+++)^1 (+++=200+ colonies)
same,growth (amount of colonies present within the petri plate),"H. pylori ATCC 43504; Table V, in the presence of 10 mM urea, final drug concentration 10 ng/ml, Nigericin assay done in duplicate",(++)^1 (++=50-200 colonies)
same,growth (amount of colonies present within the petri plate),"H. pylori ATCC 43504; Table V, in the presence of 10 mM urea, final drug concentration 100 ng/ml, Nigericin assay done in duplicate",(+++)^1 (+++=200+ colonies)
same,growth (amount of colonies present within the petri plate),"H. pylori ATCC 43504; Table V, in the presence of 10 mM urea, final drug concentration 1 μg/ml, Nigericin assay done in duplicate",(±)^1 (±=0-20 colonies)
same,growth (amount of colonies present within the petri plate),"H. pylori ATCC 43504; Table V, in the presence of 10 mM urea, final drug concentration 10 μg/ml, Nigericin assay done in duplicate",No growth^1
same,growth (amount of colonies present within the petri plate),"H. pylori ATCC 43504; Table VI, in the presence of 2.5 mM urea, final drug concentration 1 ng/ml",(+++) (+++=200+ colonies)
same,growth (amount of colonies present within the petri plate),"H. pylori ATCC 43504; Table VI, in the presence of 2.5 mM urea, final drug concentration 10 ng/ml",(+++) (+++=200+ colonies)
same,growth (amount of colonies present within the petri plate),"H. pylori ATCC 43504; Table VI, in the presence of 2.5 mM urea, final drug concentration 1 μg/ml",(±) (±=0-20 colonies)
same,growth (amount of colonies present within the petri plate),[1]; [3],(+++) (+++=200+ colonies)
same,growth (amount of colonies present within the petri plate),[1]; [4],(+++) (+++=200+ colonies)
same,growth (amount of colonies present within the petri plate),[1]; [5],(+++) (+++=200+ colonies)
same,growth (amount of colonies present within the petri plate),[1]; [6],No growth
same,growth (amount of colonies present within the petri plate),[1]; [7],No growth
same,growth (amount of colonies present within the petri plate),"Staph ATCC 14775; Table XIV, Non-microaerophilic conditions, final drug concentration 0.1 ng/ml",(+++) (+++=200+ colonies)
same,growth (amount of colonies present within the petri plate),"Staph ATCC 14775; Table XIV, Non-microaerophilic conditions, final drug concentration 1 ng/ml",(+++) (+++=200+ colonies)
same,growth (amount of colonies present within the petri plate),"Staph ATCC 14775; Table XIV, Non-microaerophilic conditions, final drug concentration 10 ng/ml",(+++) (+++=200+ colonies)
same,growth (amount of colonies present within the petri plate),"Staph ATCC 14775; Table XIV, Non-microaerophilic conditions, final drug concentration 100 ng/ml",(+++***) (+++=200+ colonies)
same,growth (amount of colonies present within the petri plate),"Staph ATCC 14775; Table XIV, Non-microaerophilic conditions, final drug concentration 1 μg/ml",No growth
same,growth (amount of colonies present within the petri plate),"Staph ATCC 14775; Table XIV, Non-microaerophilic conditions, final drug concentration 10 μg/ml",No growth
"CC[C@@H](C(=O)[C@@H](C)[C@@H](O)[C@H](C)[C@@H]1O[C@@H]([C@@H](CC)C(=O)O)CC[C@@H]1C)[C@H]1O[C@]2(C=C[C@@H](O)[C@]3(CC[C@@](C)([C@H]4CC[C@](O)(CC)[C@H](C)O4)O3)O2)[C@H](C)C[C@@H]1C [Salinomycin, salinomycin]",MIC,"H. pylori ATCC 43504; Helicobacter pylori, ATCC43504",6.25 µg/mL
same,growth (amount of colonies present within the petri plate),"H. pylori ATCC 43504; Table VII, urease positive, final drug concentration 0.098 μg/ml",(+++) (+++=200+ colonies)
same,growth (amount of colonies present within the petri plate),"H. pylori ATCC 43504; Table VII, urease positive, final drug concentration 0.195 μg/ml",(+++) (+++=200+ colonies)
same,growth (amount of colonies present within the petri plate),"H. pylori ATCC 43504; Table VII, urease positive, final drug concentration 0.39 μg/ml",(+++) (+++=200+ colonies)
same,growth (amount of colonies present within the petri plate),"H. pylori ATCC 43504; Table VII, urease positive, final drug concentration 0.78 μg/ml",(+++) (+++=200+ colonies)
same,growth (amount of colonies present within the petri plate),"H. pylori ATCC 43504; Table VII, urease positive, final drug concentration 1.56 μg/ml",(+++) (+++=200+ colonies)
same,growth (amount of colonies present within the petri plate),[2]; [3],(+++) (+++=200+ colonies)
same,growth (amount of colonies present within the petri plate),[2]; final drug concentration 1 ng/ml,(+++) (+++=200+ colonies)
same,growth (amount of colonies present within the petri plate),[2]; [4],(+++) (+++=200+ colonies)
same,growth (amount of colonies present within the petri plate),[2]; [5],(+++) (+++=200+ colonies)
same,growth (amount of colonies present within the petri plate),[2]; [6],(+++) (+++=200+ colonies)
same,growth (amount of colonies present within the petri plate),[2]; [7],No growth
same,growth (amount of colonies present within the petri plate),"Staph ATCC 14775; Table XV, Non microaerophilic conditions, final drug concentration 10 ng/ml",(+++) (+++=200+ colonies)
same,growth (amount of colonies present within the petri plate),"Staph ATCC 14775; Table XV, Non microaerophilic conditions, final drug concentration 100 ng/ml",(+++) (+++=200+ colonies)
same,growth (amount of colonies present within the petri plate),"Staph ATCC 14775; Table XV, Non microaerophilic conditions, final drug concentration 1 μg/ml",(+++)^1 (+++=200+ colonies)
same,growth (amount of colonies present within the petri plate),"Staph ATCC 14775; Table XV, Non microaerophilic conditions, final drug concentration 10 μg/ml",No growth
